Experimental data taken from US20230390416A1, “COMPOSITIONS FOR INDUCING TUMOR IMMUNITY AND REDUCING DRUG TOLERANCE” (The Brigham and Women's Hospital, Inc., priority 2020, published 2023).
Values belong to the compound of their own block, whether it stands above or below them.

Assays:
[1] = clinical Cmax from published literature; used as ex vivo treatment concentration, 72 hours; cited from earlier work
MDA-MB-231 DTCCs [2] = assay: MICA/B expression by flow cytometry in DTCCs under Hsp90 inhibitors; assay type: cell-based, human; conditions: % MICA/B positively expressing cells, overnight (radicicol 5 μM, FIG. 3C), vehicle 76.2 ± 1.1
Description: (§1) Two schedules of drugs in combination were administered to the indicated TNBC parental cell lines (A). […] Plots generated using constant ratio drug combination. […] N=11 in biological replicate. • (D) Quantification of MICA/B mean fluorescence, corrected for background by negative control. […] N≥4 in biological replicate. • (I) In vitro drug synergy was determined using the Chau-Talalay method. Two schedules of drugs in combination were administered to the indicated TNBC parental cell lines (A). […] Plots generated using constant ratio drug combination. Values falling below 1.0 combination index=synergy. • (J) In silico prediction model of drug schedule on signaling pathways. […] The first drug was administered at the beginning of the experiment (t=0), followed by the second drug after 48 h (t=48). […] GAPDH loading control.
(§2) Human MDA-MB-231, MDA-MB-468, MDA-MB-436, MCF-7, mammary carcinoma 4T-1 cells (ATCC) and SUM159 (Bioivt) were purchased in the last 10 years and cultured in 10% fetal bovine serum in DMEM or RPMI media (Invitrogen, Carlsbad CA, USA). Cell lines were validated for absence of mycoplasma prior to use, by the sourcing agency. Cells were used within 10 passages from frozen stock vials obtained from the sourcing agency.

MDA-MB-468 DTCCs = assay: as above; assay type: cell-based, human; conditions: % MICA/B positively expressing cells, vehicle 54.7 ± 3.9
Description: as §1, §2

SUM 159 DTCCs = assay: as above; assay type: cell-based, human; conditions: % MICA/B positively expressing cells, vehicle 30.6 ± 0.9
Description: as §1, §2

[3] = NPs exemplified in U.S. Pat. No. 10,300,143; cited from earlier work
DTCCs = assay: Western blot of DTCCs after transient exposure to Rad-NP or radicicol free drug; assay type: cell-based; conditions: 4 hours exposure, wash-out; in most cases
Description: Protein samples were resolved by SDS-PAGE and transferred to PVDF membranes prior to incubation at 4° C. with indicated primary antibodies, mTOR and pMTOR^Ser2448, pAKT^Thr308 and AKT, Phospho-p44/42 MAPK (Erk1/2)^Thr202/Tyr204, p44/42 MAPK (Erk1/2) pPRAS40^Thr246 pSTAT3^Tyr705, STAT3, PRAS40 and β-Actin antibodies were purchased from Cell Signaling Technology, pHck^Tyr410 (Thermo Fisher Scientific) MICA/B (R&D Systems, Minneapolis, MN) and HSF-1 and HSF-1^Ser326 (abcam).

MDA-MB-231 DTCCs [4] = assay: Fluorescent lipid uptake by flow cytometry, DTCCs vs DNCCs; assay type: cell-based, human; conditions: for uptake into DTCCs vs. DNCCs: fluorescently labeled lipids, flow cytometry
MDA-MB-468 = assay: as above; assay type: cell-based, human; conditions: multiple TNBC cell lines using epithelial-like MDA-MB-468

Compound: CCCCCOC(=O)Nc1nc(=O)n([C@@H]2O[C@H](C)[C@@H](O)[C@H]2O)cc1F [Capecitabine]
Cmax (concentration used) [1]: 3900 ng/mL

Compound: N.N.O=C([O-])C1(C(=O)[O-])CCC1.[Pt+2] [Carboplatin]
Cmax (concentration used) [1]: 37100 ng/mL

Compound: CC(=O)O[C@@]12CO[C@@H]1C[C@H](O)[C@@]1(C)C(=O)[C@H](O)C3=C(C)[C@@H](OC(=O)[C@H](O)[C@@H](NC(=O)OC(C)(C)C)c4ccccc4)C[C@@](O)([C@@H](OC(=O)c4ccccc4)[C@H]21)C3(C)C [Docetaxel, docetaxel]
active form of HSF-1 (Ser326) (Hsp90; parental MDA-MB-231 cells under docetaxel drug pressure, western blot): induced the active form of HSF-1 (Ser326)
Cmax (concentration used) [1]: 2000 ng/mL

Compound: C=C1C[C@@H]2CC[C@@]34C[C@H]5O[C@H]6[C@@H](O3)[C@H]3O[C@H](CC[C@@H]3O[C@H]6[C@H]5O4)CC(=O)C[C@@H]3[C@@H](OC)[C@@H](C[C@H](O)CN)O[C@H]3C[C@H]3O[C@@H](CC[C@@H]1O2)C[C@@H](C)C3=C [Eribulin]
Cmax (concentration used) [1]: 371 ng/mL

MICA (%) ± SEM (MDA-MB-231 DTCCs [2]): 82.5 ± 2.2%
MICA (%) ± SEM (MDA-MB-468 DTCCs): 70.1 ± 3.0%
MICA (%) ± SEM (SUM 159 DTCCs): 35.4 ± 6.0%
Compound: CC(C)c1cc(-c2n[nH]c(=O)n2-c2ccc3c(ccn3C)c2)c(O)cc1O [Ganetespib, ganetespib]

Compound: Nc1ccn([C@@H]2O[C@H](CO)[C@@H](O)C2(F)F)c(=O)n1 [Gemcitabine]
Cmax (concentration used) [1]: 22300 ng/mL

Compound: C/C(=C\c1csc(C)n1)[C@@H]1C[C@@H]2O[C@]2(C)CCC[C@H](C)[C@H](O)[C@@H](C)C(=O)C(C)(C)[C@@H](O)CC(=O)N1 [Ixabepilone]
Cmax (concentration used) [1]: 252 ng/mL

Compound: Oc1cccc(-c2nc(N3CCOCC3)c3oc4ncccc4c3n2)c1 [PI-103]
incorporation efficiency [3]: 55-65%

Compound: Nc1ccc(-c2cccc3c(=O)cc(N4CCOCC4)oc23)cc1 [PI-828]
incorporation efficiency [3]: ~40%

Compound: CC(C)NCCCn1c(Sc2cc3c(cc2I)OCO3)nc2c(N)ncnc21 [PU-H71]
MICA (%) ± SEM (MDA-MB-231 DTCCs [2]): 79.5 ± 0.4%
MICA (%) ± SEM (MDA-MB-468 DTCCs): 71.9 ± 4.2%
MICA (%) ± SEM (SUM 159 DTCCs): 33.3 ± 4.1%
cytoplasmic sequestration of HSF-1 Ser326 and activation of pro-survival proteins (Hsp90; DTCCs, confocal microscopy and western blot): reversed cytoplasmic sequestration of HSF-1^Ser326 and activation of pro-survival proteins

Compound: CC(=O)O[C@H]1C(=O)[C@@]2(C)[C@H]([C@H](OC(=O)c3ccccc3)[C@]3(O)C[C@H](OC(=O)[C@H](O)[C@@H](NC(=O)c4ccccc4)c4ccccc4)C(C)=C1C3(C)C)[C@]1(OC(C)=O)CO[C@@H]1C[C@@H]2O [Paclitaxel]
Cmax [1]: 6.91 µM

Compound: C[C@@H]1C[C@H]2O[C@@H]2/C=C\C=C\C(=O)Cc2c(Cl)c(O)cc(O)c2C(=O)O1 [Radicicol, radicicol]
time of rescue of signaling disruption (DTCCs): ≤ 36 h

Compound: CCC1=C[C@@H]2CN(C1)Cc1c([nH]c3ccccc13)[C@@](C(=O)OC)(c1cc3c(cc1OC)N(C)[C@H]1[C@@](O)(C(=O)OC)[C@H](OC(C)=O)[C@]4(CC)C=CCN5CC[C@]31[C@@H]54)C2 [Vinorelbine]
Cmax (concentration used) [1]: 126.6 ng/mL

Compound: CC(CCC[C@@H](C)[C@@H]1CC[C@H]2[C@@H]3CC=C4C[C@@H](O)CC[C@]4(C)[C@H]3CC[C@@]21C)N(C)c1ccc([N+](=O)[O-])c2nonc12 (some centres unmarked) [cholesterol, 25-[N-[(7-nitro-2-1,3-benzoxadiazol-4-yl)methyl]amino]-27-norcholesterol]
uptake into DTCCs vs. DNCCs (MDA-MB-231 DTCCs [4]): significantly increased uptake into DTCCs vs. DNCCs
specificity of binding to DTCCs (MDA-MB-468): bound with the highest degree of specificity

Compound: CCCCCCCC/C=C\CCCCCCCC(=O)OC[C@H](COP(=O)(O)O)OC(=O)CCCCCCCCCCCNc1ccc([N+](=O)[O-])c2nonc12.N.N [phosphatidic acid (PA), 1-oleoyl-2-{12-[(7-nitro-2-1,3-benzoxadiazol-4-yl)amino]dodecanoyl}-sn-glycero-3-phosphate (ammonium salt)]
uptake into DTCCs vs. DNCCs (MDA-MB-231 DTCCs [4]): to a lesser degree

Compound: CCCCCCCC/C=C\CCCCCCCC(=O)OC[C@H](COP(=O)([O-])OCC[N+](C)(C)C)OC(=O)CCCCCNc1ccc([N+](=O)[O-])c2nonc12 [phosphatidylcholine (PC), 1-oleoyl-2-{6-[(7-nitro-2-1,3-benzoxadiazol-4-yl)amino]hexanoyl}-sn-glycero-3-phosphocholine]
rate of internalization in DTCC vs DNCC (MDA-MB-231 DTCCs [4]; checked at definite time intervals): higher rate of internalization
uptake into DTCCs vs. DNCCs (MDA-MB-231 DTCCs [4]): significantly increased uptake into DTCCs vs. DNCCs
specificity of binding to DTCCs (MDA-MB-468): bound with the highest degree of specificity

Compound: Pembrolizumab: clinically-approved anticancer drug
Cmax (concentration used) [1]: 65700 ng/mL
